Data taken from US10385014B2, “Acyloxyalkyl carbamate prodrugs, methods of synthesis and use” (ARBOR PHARMACEUTICALS, LLC, priority 2003, dated 2019).

Assays:
[1] = Chemical stability of prodrugs in aqueous buffers; assay type: physicochemical
Method: (§1) The stabilities of prodrugs were evaluated in one or more in vitro systems using a variety of tissue preparations following methods known in the art. The chemical stability of prodrugs in aqueous buffers at pH's of 2.0, 7.4 and 8.0 were also measured. […] Each preparation was incubated with test compound at 37° C. for one hour. Aliquots (50 μL) were removed at 0, 30, and 60 min and quenched with 0.1% trifluoroacetic acid in acetonitrile. Samples were then centrifuged and analyzed by LC/MS/MS (see Example 86 below for method details).

[2] = Prodrug stability in human plasma in vitro; assay type: in vitro ADME; conditions: 2.0 μM, 37° C.
Method: as §1

[3] = Prodrug stability in human liver S9; assay type: in vitro ADME; conditions: Human Liver S9 (0.5 mg/mL), 2.0 μM, NADPH, 37° C.
Method: as §1

[4] = Prodrug stability in rat liver S9; assay type: in vitro ADME; conditions: Rat Liver S9 (0.5 mg/mL), 2.0 μM, NADPH, 37° C.
Method: as §1

[5] = test system: pancreatin; assay: Pancreatin stability; assay type: in vitro ADME, porcine; conditions: 1% (w/v) pancreatin, 5 μM, pH 7.5, 37° C.
Method: Pancreatin Stability: Stability studies were conducted by incubating prodrug (5 μM) with 1% (w/v) pancreatin (Sigma, P-1625, from porcine pancreas) in 0.025 M Tris buffer containing 0.5 M NaCl (pH 7.5) at 37° C. for 60 min. The reaction was stopped by addition of 2 volumes of methanol. After centrifugation at 14,000 rpm for […], the supernatant was removed and analyzed by LC/MS/MS.

[6] = Caco-2 homogenate S9 stability; assay type: in vitro ADME; conditions: Caco-2 S9 (0.5 mg protein per mL), 5 μM, 37° C.
Method: Caco-2 Homogenate S9 Stability: Caco-2 cells were grown for 21 days prior to harvesting. Culture medium was removed and cell monolayers were rinsed and scraped off into ice-cold 10 mM sodium phosphate/0.15 M potassium chloride, pH 7.4. Cells were lysed by sonication at 4° C. using a probe sonicator. Lysed cells were then transferred into 1.5 mL centrifuge vials and centrifuged at 9000 g for 20 min at 4° C. The resulting supernatant (Caco-2 cell homogenate S9 fraction) was aliquoted into 0.5 mL vials and stored at −80° C. until used.
For stability studies, prodrug (5 μM) was incubated in Caco-2 homogenate S9 fraction (0.5 mg protein per mL) for 60 min at 37° C. Concentrations of intact prodrug and released baclofen were determined at zero time and 60 minutes using LC/MS/MS.

[7] = Prodrug stability in rat plasma in vitro; assay type: in vitro ADME; conditions: 2.0 μM, 37° C.
Method: as §1

Compound	% of Baclofen Released after 60 min ([1]; aqueous buffer pH 2.0, 37° C.)	% of Baclofen Released after 60 min ([1]; aqueous buffer pH 7.4, 37° C.)	% of Baclofen Released after 60 min ([1]; aqueous buffer pH 8.0, 37° C.)	% of Baclofen Released after 60 min [2]	% of Baclofen Released after 60 min [3]	% of Prodrug Remaining after 60 min [3]	% of Prodrug Remaining after 60 min [4]	% of Baclofen Released after 60 min [5]	% of Prodrug Remaining after 60 min ([1]; aqueous buffer pH 7.4, 37° C.)	% of Prodrug Remaining after 60 min ([1]; aqueous buffer pH 8.0, 37° C.)	% of Prodrug Remaining after 60 min [5]	% of Prodrug Remaining after 60 min [6]	% of Baclofen Released after 60 min [4]	% of Prodrug Remaining after 60 min [7]	% of Prodrug Remaining after 60 min ([1]; aqueous buffer pH 2.0, 37° C.)	% of Baclofen Released after 60 min [6]	% of Baclofen Released after 60 min [7]
CC(C)C(=O)O[C@@H](OC(=O)NC[C@H](CC(=O)[O-])c1ccc(Cl)cc1)C(C)C.[Na+] [(92), Sodium 4-{[(1S)-Isobutanoyloxyisobutoxy]carbonylamino}-(3R)-(4-chlorophenyl)-butanoate]	0%	0%	1%	1%	80%	4%	6%	7%									
CC(C)C(=O)O[C@@H](OC(=O)NC[C@H](CC(=O)O)c1ccc(Cl)cc1)C(C)C [(104)]	0%	0%	0%	2%	97%	3%	3%	6%	100%	100%	90%						
CC(OC(=O)NC[C@H](CC(=O)[O-])c1ccc(Cl)cc1)OC(=O)c1ccccc1.[Na+] (stereo partly drawn) [(40), Sodium 4-[(1-Benzoyloxyethoxy)carbonylamino]-(3R)-(4-chlorophenyl)-butanoate]	0%	0%	2%	2%		1%	8%										
O=C([O-])C[C@@H](CNC(=O)OCOC(=O)C1CCCCC1)c1ccc(Cl)cc1.[Na+] [(14), Sodium 4-[(Cyclohexanecarboxymethoxy)carbonylamino]-(3R)-(4-chlorophenyl)-butanoate]	1%	1%	2%			2%	2%			102%	2%	2%					
CC(C)C(=O)OC(OC(=O)NC[C@H](CC(=O)[O-])c1ccc(Cl)cc1)C1CCCCC1.[Na+] (stereo partly drawn) [(84), Sodium 4-[(1-Isobutanoyloxy-1-cyclohexylmethoxy)carbonylamino]-(3R)-(4-chlorophenyl)-butanoate]	0%	0%	1%	4%		2%	4%						91%				
CC(C)CC(=O)OCOC(=O)NC[C@H](CC(=O)[O-])c1ccc(Cl)cc1.[Na+] [(59), Sodium 4-[(3-Methylbutanoyloxymethoxy)carbonylamino]-(3R)-(4-chlorophenyl)-butanoate]	0%	1%	2%			1%	2%		103%			3%	85%	2%			
CCCC(=O)OC(OC(=O)NC[C@H](CC(=O)[O-])c1ccc(Cl)cc1)C(C)C.[Na+] (stereo partly drawn) [(27), Sodium 4-[(1-Butanoyloxyisobutoxy)carbonylamino]-(3R)-(4-chlorophenyl)-butanoate]	0%	0%	1%	12%		8%	0%	9%									
O=C([O-])C[C@@H](CNC(=O)OCOC(=O)c1ccccc1)c1ccc(Cl)cc1.[Na+] [(12), Sodium 4-[(Benzoyloxymethoxy)carbonylamino]-(3R)-(4-chlorophenyl)-butanoate]	0%	0%	0%	5%	100%	1%	3%		100%			2%			100%	100%	
CC(C)C(=O)O[C@H](C)OC(=O)NC[C@H](CC(=O)[O-])c1ccc(Cl)cc1.[Na+] [(34), Sodium 4-{[(1S)-Isobutanoyloxyethoxy]carbonylamino}-(3R)-(4-chlorophenyl)-butanoate]	0%	0%	0%	2%	100%	3%	1%	18%	100%	100%		2%	100%			100%	
CC(OC(=O)NC[C@H](CC(=O)[O-])c1ccc(Cl)cc1)OC(=O)C(C)C.[Na+] (stereo partly drawn) [(33), Sodium 4-[(1-Isobutanoyloxyethoxy)carbonylamino]-(3R)-(4-chlorophenyl)-butanoate]	0%	0%	0%	4%	101%	3%	4%					3%	101%				
O=C([O-])C[C@@H](CNC(=O)OCOC(=O)c1cccs1)c1ccc(Cl)cc1.[Na+] [(57), Sodium 4-[(2-Thienylcarbonyloxymethoxy)carbonylamino]-(3R)-(4-chlorophenyl)-butanoate]	0%	0%	0%			1%	2%		100%	100%		2%					
CC(C)(C)C(=O)OCOC(=O)NC[C@H](CC(=O)[O-])c1ccc(Cl)cc1.[Na+] [(20), Sodium 4-[(Pivaloyloxymethoxy)carbonylamino]-(3R)-(4-chlorophenyl)-butanoate]	0%	0%	0%	9%		1%			100%			1%			100%	100%	8%
CC(C)C(OC(=O)NC[C@H](CC(=O)[O-])c1ccc(Cl)cc1)OC(=O)C(C)(C)C.[Na+] (stereo partly drawn) [(43), Sodium 4-[(1-Pivaloyloxyisobutoxy)carbonylamino]-(3R)-(4-chlorophenyl)-butanoate]	0%	0%	0%	2%			3%	4%									
CC(=O)OC(OC(=O)NC[C@H](CC(=O)[O-])c1ccc(Cl)cc1)C(C)C.[Na+] (stereo partly drawn) [(23), Sodium 4-[(1-Acetoxyisobutoxy)carbonylamino]-(3R)-(4-chlorophenyl)-butanoate]	0%	1%	2%	3%		4%	3%								107%		
CC(=O)OCOC(=O)NC[C@H](CC(=O)[O-])c1ccc(Cl)cc1.[Na+] [(10), Sodium 4-[(Acetoxymethoxy)carbonylamino]-(3R)-(4-chlorophenyl)-butanoate]	1%	3%	9%			1%	0%					2%					
CCOC(C)(OCC)C(=O)OCOC(=O)NC[C@H](CC(=O)[O-])c1ccc(Cl)cc1.[Na+] [(51), Sodium 4-[(2,2-Diethoxypropanoyloxymethoxy)carbonylamino]-(3R)-(4-chlorophenyl)-butanoate]	0%	2%	9%		91%	6%	2%	50%				3%				100%	
CCC[C@H](OC(=O)NC[C@H](CC(=O)[O-])c1ccc(Cl)cc1)OC(=O)C(C)C.[Na+] [(91), Sodium 4-{[(1S)-Isobutanoyloxybutoxy]carbonylamino}-(3R)-(4-chlorophenyl)-butanoate]	0%	0%	1%	2%		1%		78%				6%					
